Source: US9499509B2, “Dihydrochalcone derivatives and their use as antibiotic agents” (UNIVERSITÉ DU QUÉBEC À CHICOUTIMI, priority 2012, dated 2016)
Values after ≈ are worked out from the molar mass of the structure shown.

Columns and labels:
MRSA strains = experiment: Antibiotic assay (absorption 660 nm, Example 2), MRSA strains; format: cell-based, Staphylococcus aureus
Method: (§1) Antibiotic agents. Gentamicin sulfate was provided by Calbiochem. Chloramphenicol was provided by Sigma-Aldrich.
(§2) Antibiotic assay. […] The bacteria strains were inoculated in nutrients broth. […] All bacteria were plated in nutrients broth at a concentration of 450 000 bacteria/m L.
(§3) Compounds IV to XXI were diluted in dimethylsulfoxide. […] The compounds were tested at 8 different concentrations.
(§4) Each well contained: 100 μL of bacteria, 100 μL of the compounds tested. The plates were incubated at 37° C. for 6 h. The absorption was read using a Varioskan flash multimode Reader™ (Thermo Scientific) at 660 nm.
(§5) MRSA. Ten (10) strains of MRSA obtained as described above were tested along with an S. aureus wild type (WT) strain (ATCC 25923).

[1] = test system: S. aureus wild type strain (ATCC 25923); experiment: Antibiotic assay (absorption 660 nm, Example 2), S. aureus wild type; format: cell-based, Staphylococcus aureus; details: for MIC: S. aureus WT (ATCC 25923); for S. aureus WT ATCC 25923 (toxicity on bacteria): Table 7, same values as MIC of Table 6
Method: as §1, §2, §3, §4, §5

WS-1 cell lines = experiment: Cytotoxicity assay on WS-1 (Example 2); format: cell-based; parameters: unit not given here; details: Table 7; WS-1, 48 h
Method: Cytotoxicity assay. […] The WS-1 cell lines were provided by ATCC. […] The compounds tested were then added at 8 different concentrations. […] In Table 7, the therapeutic indexes of compounds IV to XXI are presented.

| SMILES | MIC (MRSA strains; MRSA 1) [µM] | MIC (MRSA strains; MRSA 2) [µM] | MIC (MRSA strains; MRSA 3) [µM] | MIC (MRSA strains; MRSA 4) [µM] | MIC (MRSA strains; MRSA 5) [µM] | MIC (MRSA strains; MRSA 6) [µM] | MIC (MRSA strains; MRSA 7) [µM] | MIC (MRSA strains; MRSA 9) [µM] | MIC (MRSA strains; MRSA 10) [µM] | MIC [1] [µM] | S. aureus WT ATCC 25923 (toxicity on bacteria) [1] | WS-1 (toxicity on normal cells, fibroblast) (WS-1 cell lines) | MIC (MRSA strains; MRSA 8) [µM] |
| --- | --- | --- | --- | --- | --- | --- | --- | --- | --- | --- | --- | --- | --- |
| COc1cc(O)c(C(=O)CCc2ccc(O)cc2)c2c1CCC(c1ccc(O)cc1)O2 (racemic) [X] | 5.2 ± 0.4 (≈ 2.19 µg/mL) | 5.7 ± 0.4 (≈ 2.4 µg/mL) | 4 (≈ 1.68 µg/mL) | 3 (≈ 1.26 µg/mL) | 4 ± 2 (≈ 1.68 µg/mL) | 9 ± 1 (≈ 3.78 µg/mL) | 5.3 ± 0.2 (≈ 2.23 µg/mL) | 5.3 ± 0.4 (≈ 2.23 µg/mL) | 5.6 ± 0.5 (≈ 2.35 µg/mL) | 5.3 ± 0.6 (≈ 2.23 µg/mL) | 5.3 ± 0.6 | 16 ± 4 |  |
| COc1ccc(CCC(=O)c2c(O)cc(O)c3c2O[C@@H](c2ccc(O)cc2)CC3)cc1 [IX] | 7.7 ± 0.3 (≈ 3.24 µg/mL) | 9 ± 1 (≈ 3.78 µg/mL) | 6.25 ± 0.06 (≈ 2.63 µg/mL) | 6.7 ± 0.2 (≈ 2.82 µg/mL) | 6.9 ± 0.4 (≈ 2.9 µg/mL) | 7.1 ± 0.9 (≈ 2.99 µg/mL) | 5.2 ± 0.4 (≈ 2.19 µg/mL) | 3.7 ± 0.2 (≈ 1.56 µg/mL) | 7.5 ± 0.7 (≈ 3.15 µg/mL) | 8.0 ± 0.3 (≈ 3.36 µg/mL) | 8.0 ± 0.3 | >50 | 4.9 ± 0.2 (≈ 2.06 µg/mL) |
| COc1ccc(CCC(=O)c2c(O)cc(O)c3c2O[C@H](c2ccc(O)cc2)CC3)cc1 [VIII] | >50 | >50 | >50 | >50 | >50 | >50 | >50 | >50 | >50 | >50 | >50 | >50 | >50 |
| O=C(CCc1ccccc1)c1c(O)cc(O)c2c1O[C@@H](c1ccc(O)cc1)CC2 [VI] | 3.5 ± 0.1 (≈ 1.37 µg/mL) | 2.9 ± 0.2 (≈ 1.13 µg/mL) | 3.8 ± 0.3 (≈ 1.48 µg/mL) | 5.2 ± 0.4 (≈ 2.03 µg/mL) | 4.9 ± 0.6 (≈ 1.91 µg/mL) | 14.2 ± 0.9 (≈ 5.54 µg/mL) | 3.4 ± 0.2 (≈ 1.33 µg/mL) | 4.7 ± 0.2 (≈ 1.84 µg/mL) | 4.65 ± 0.06 (≈ 1.82 µg/mL) | 2.7 ± 0.3 (≈ 1.05 µg/mL) | 2.7 ± 0.3 | >50 | 3.8 ± 0.3 (≈ 1.48 µg/mL) |
| O=C(CCc1ccccc1)c1c(O)cc(O)c2c1O[C@H](c1ccc(O)cc1)CC2 [V] | 4.1 ± 0.1 (≈ 1.6 µg/mL) | 2.58 ± 0.10 (≈ 1.01 µg/mL) | 3.8 ± 0.2 (≈ 1.48 µg/mL) | 4.7 ± 0.4 (≈ 1.84 µg/mL) | 4.4 ± 0.1 (≈ 1.72 µg/mL) | 6.9 ± 0.4 (≈ 2.69 µg/mL) | 3.0 ± 0.2 (≈ 1.17 µg/mL) | 6.2 ± 0.4 (≈ 2.42 µg/mL) | 5.0 ± 0.3 (≈ 1.95 µg/mL) | 2.5 ± 0.2 (≈ 0.976 µg/mL) | 2.5 ± 0.2 | >50 | 3.8 ± 0.4 (≈ 1.48 µg/mL) |
| COc1cc(O)c(C(=O)CCc2ccc(O)cc2)c2c1CC[C@H](c1ccc(O)cc1)O2 [XII] | 0.55 ± 0.07 (≈ 0.231 µg/mL) | 0.65 ± 0.03 (≈ 0.273 µg/mL) | 1.10 ± 0.07 (≈ 0.463 µg/mL) | 0.64 ± 0.02 (≈ 0.269 µg/mL) | 0.60 ± 0.01 (≈ 0.252 µg/mL) | 0.76 ± 0.04 (≈ 0.32 µg/mL) | 0.57 ± 0.06 (≈ 0.24 µg/mL) | 0.86 ± 0.03 (≈ 0.362 µg/mL) | 0.7 ± 0.1 (≈ 0.294 µg/mL) | 0.58 ± 0.02 (≈ 0.244 µg/mL) | 0.58 ± 0.02 | >50 | 0.641 ± 0.01 (≈ 0.27 µg/mL) |
| O=C(CCc1ccccc1)c1c(O)cc2c(c1O)CC(O)C(c1ccc(O)cc1)O2 (stereo not drawn) [XIV] | 21.9 ± 0.2 (≈ 8.9 µg/mL) | 25 ± 2 (≈ 10.2 µg/mL) | 18 ± 1 (≈ 7.32 µg/mL) | 22 ± 2 (≈ 8.94 µg/mL) | 20 ± 2 (≈ 8.13 µg/mL) | 20 ± 3 (≈ 8.13 µg/mL) | 18.5 ± 0.4 (≈ 7.52 µg/mL) | 20 ± 2 (≈ 8.13 µg/mL) | 11.4 ± 0.6 (≈ 4.63 µg/mL) | 10.9 ± 0.6 (≈ 4.43 µg/mL) | 10.9 ± 0.6 | >50 | 23.4 ± 1.0 (≈ 9.51 µg/mL) |
| COc1cc(O)c(C(=O)CCc2ccc(O)cc2)c2c1CC[C@@H](c1ccc(O)cc1)O2 [XI] | <0.39 | <0.39 | <0.39 | <0.39 | <0.39 | <0.39 | <0.39 | <0.39 | <0.39 | <0.39 | <0.39 | >50 | <0.39 |
| O=C(CCc1ccccc1)c1c(O)cc(O)c2c1OC(c1ccc(O)cc1)C(O)C2 (stereo not drawn) [XVIII] | 12 ± 1 (≈ 4.88 µg/mL) | 14 ± 1 (≈ 5.69 µg/mL) | 15.9 ± 0.8 (≈ 6.46 µg/mL) | 15 ± 1 (≈ 6.1 µg/mL) | 11.5 ± 0.4 (≈ 4.67 µg/mL) | 11 ± 2 (≈ 4.47 µg/mL) | 7.5 ± 0.4 (≈ 3.05 µg/mL) | 13 ± 2 (≈ 5.28 µg/mL) | 12 ± 1 (≈ 4.88 µg/mL) | 9.9 ± 0.7 (≈ 4.02 µg/mL) | 9.9 ± 0.7 | >50 | 9.5 ± 1.0 (≈ 3.86 µg/mL) |
| O=C(CCc1ccccc1)c1c(O)cc(O)c2c1OC(c1ccc(O)cc1)C(O)C2 (stereo not drawn) [XVII] | 13 ± 1 (≈ 5.28 µg/mL) | 12 ± 1 (≈ 4.88 µg/mL) | 16.7 ± 0.5 (≈ 6.79 µg/mL) | 15 ± 1 (≈ 6.1 µg/mL) | 5.1 ± 0.2 (≈ 2.07 µg/mL) | 6 ± 2 (≈ 2.44 µg/mL) | 8.2 ± 0.7 (≈ 3.33 µg/mL) | 17 ± 1 (≈ 6.91 µg/mL) | 17 ± 1 (≈ 6.91 µg/mL) | 13.0 ± 0.8 (≈ 5.28 µg/mL) | 13.0 ± 0.8 | >50 | 10.2 ± 0.8 (≈ 4.15 µg/mL) |
